Source: ChEMBL document CHEMBL3877336, “Structure-Based Design of ASK1 Inhibitors as Potential Agents for Heart Failure” (ACS Med Chem Lett, 2017)

Tests used:
[1] = target: T1, Mitogen-activated protein kinase kinase kinase 5 (Homo sapiens, UniProt Q99683); test: Inhibition of recombinant human N-terminal GST-tagged ASK1 catalytic domain (654 to 971 residues) expressed in baculovirus infected sf21 cells using STK3 as substrate after 60 mins by HTRF assay
T1 sequence (Q99683 whole entry): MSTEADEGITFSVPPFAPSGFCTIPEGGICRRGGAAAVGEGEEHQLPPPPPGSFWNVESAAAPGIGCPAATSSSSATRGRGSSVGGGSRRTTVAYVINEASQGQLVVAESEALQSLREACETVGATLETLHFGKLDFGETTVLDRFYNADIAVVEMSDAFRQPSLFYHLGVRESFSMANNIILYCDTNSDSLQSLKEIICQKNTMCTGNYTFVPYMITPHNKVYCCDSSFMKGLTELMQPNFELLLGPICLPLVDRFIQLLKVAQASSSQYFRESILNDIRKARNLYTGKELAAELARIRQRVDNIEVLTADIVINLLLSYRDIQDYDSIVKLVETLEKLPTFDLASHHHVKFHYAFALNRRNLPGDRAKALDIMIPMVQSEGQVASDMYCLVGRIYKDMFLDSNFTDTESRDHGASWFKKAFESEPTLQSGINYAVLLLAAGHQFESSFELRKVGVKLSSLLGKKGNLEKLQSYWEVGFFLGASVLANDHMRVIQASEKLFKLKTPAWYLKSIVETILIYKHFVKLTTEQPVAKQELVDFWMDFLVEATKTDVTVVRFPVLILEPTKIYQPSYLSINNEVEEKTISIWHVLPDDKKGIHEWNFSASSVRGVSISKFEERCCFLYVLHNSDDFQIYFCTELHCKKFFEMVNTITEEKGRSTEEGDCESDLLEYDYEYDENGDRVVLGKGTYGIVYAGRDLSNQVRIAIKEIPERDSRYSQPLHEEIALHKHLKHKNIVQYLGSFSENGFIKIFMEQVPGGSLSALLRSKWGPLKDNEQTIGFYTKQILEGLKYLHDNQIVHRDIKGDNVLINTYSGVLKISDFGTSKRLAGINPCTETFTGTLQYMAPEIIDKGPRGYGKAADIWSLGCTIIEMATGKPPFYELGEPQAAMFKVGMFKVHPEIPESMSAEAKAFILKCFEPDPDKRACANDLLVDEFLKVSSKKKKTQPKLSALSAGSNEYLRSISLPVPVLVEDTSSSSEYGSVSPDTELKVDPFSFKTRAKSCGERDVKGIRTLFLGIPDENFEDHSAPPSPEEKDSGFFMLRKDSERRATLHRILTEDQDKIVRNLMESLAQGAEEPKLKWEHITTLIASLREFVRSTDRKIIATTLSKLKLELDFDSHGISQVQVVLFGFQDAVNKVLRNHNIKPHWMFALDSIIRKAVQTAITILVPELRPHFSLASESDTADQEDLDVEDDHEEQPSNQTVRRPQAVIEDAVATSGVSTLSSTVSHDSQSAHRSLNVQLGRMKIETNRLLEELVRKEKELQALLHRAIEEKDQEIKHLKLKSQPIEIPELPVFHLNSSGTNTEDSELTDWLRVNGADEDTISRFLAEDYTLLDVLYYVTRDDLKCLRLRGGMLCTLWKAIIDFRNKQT

[2] = target: T1, Mitogen-activated protein kinase kinase kinase 5; test: Inhibition of human ASK1 expressed in HEK293 cells assessed as inhibition of H2O2-induced JNK phosphorylation preincubated for 30 mins followed by H2O2 addition measured after 30 mins by ELISA; assay type: cell-based
[3] = test system: MDR1 (human); test: Apparent permeability from basolateral to apical side in pig LLC-PK1 cells expressing human MDR1 at 10 uM after 2 hrs by LC-MS/MS analysis; assay type: ADME, cell-based, Sus scrofa
[4] = Intrinsic clearance in rat liver microsomes at 1 uM up to 30 mins in presence of NADPH by UPLC-MS/MS analysis; assay type: ADME; conditions: read-out: CLH
[5] = Intrinsic clearance in human liver microsomes at 1 uM up to 30 mins in presence of NADPH by UPLC-MS/MS analysis; assay type: ADME; conditions: read-out: CLH
[6] = test system: MDR1 (human); test: Apparent permeability from apical to basolateral side in pig LLC-PK1 cells expressing human MDR1 at 10 uM after 2 hrs by LC-MS/MS analysis; assay type: ADME, cell-based, Sus scrofa
[7] = test system: Rattus norvegicus; test: Anti-ischemic activity in Langendorff perfused Sprague-Dawley rat heart assessed as reduction in infarct size at 2.25 mg/kg, po administered via gavage administered 1 hr prior to ischemia/reperfusion relative to control; assay type: functional; set-up: scale not given: the % may be the effect or the level left
[8] = test system: Rattus norvegicus; test: Anti-ischemic activity in Langendorff perfused Sprague-Dawley rat heart assessed as reduction in infarct size at 2.25 mg/kg, po administered via gavage 8 hrs prior to ischemia/reperfusion relative to control; assay type: functional; set-up: scale not given: the % may be the effect or the level left
[9] = Solubility of the compound in pH 1 solution at 155 uM after overnight incubation by HPLC method; assay type: physicochemical; conditions: buffer, pH 1, 155 µM

CC[C@@H](C)n1cnnc1-c1cccc(N2Cc3ccccc3C2=O)n1
IC50 [1]: 50.1 nM

Cc1ccc(C(=O)Nc2cccc(-c3nncn3C(C)C)n2)c(F)c1
IC50 [1]: 50.1 nM

CC(CF)n1cnnc1-c1cccc(N2Cc3ccccc3C2=O)n1 (stereo not drawn)
IC50 [1]: 12.6 nM

CC(CC#N)n1cnnc1-c1cccc(N2Cc3ccccc3C2=O)n1 (stereo not drawn)
IC50 [1]: 20 nM

C[C@@H](CO)n1cnnc1-c1cccc(N2Cc3ccccc3C2=O)n1
IC50 [1]: 31.6 nM

CC(C)Oc1ccc2c(c1)C(=O)N(c1cccc(-c3nncn3C(C)C)n1)C2
EC50 [2]: 31.6 nM
IC50 [1]: 15.8 nM

CC[C@H](C)n1cnnc1-c1cccc(N2Cc3ccccc3C2=O)n1
IC50 [1]: 20 nM

CC(C)n1cnnc1-c1cccc(N2Cc3ccc(OC[C@@H]4CN(C)CCO4)cc3C2=O)n1
EC50 [2]: 6.31 nM
IC50 [1]: 6.31 nM

CC(C)n1cnnc1-c1cccc(N2Cc3ccccc3C2=O)n1
IC50 [1]: 12.6 nM

CC(CCO)n1cnnc1-c1cccc(N2Cc3ccccc3C2=O)n1 (stereo not drawn)
IC50 [1]: 39.8 nM

CC(C)Oc1ccc2c(c1)C(=O)N(c1cccc(-c3nncn3[C@H](C)CO)n1)C2
Papp B→A at 2 h, 10 µM [3]: 26.2 ×10⁻⁶ cm/s
EC50 [2]: 6.31 nM
IC50 [1]: 5.01 nM
CLint scaled at 1 µM [4]: < 16.6 mL/min/kg
CLint scaled at 1 µM [5]: < 8.3 mL/min/kg
Papp A→B at 2 h, 10 µM [6]: 5.49 ×10⁻⁶ cm/s
Activity [7]: 42%
Activity [8]: 24%
solubility [9]: Soluble

O=C1c2ccccc2CN1c1cccc(-c2nncn2CC2CCO2)n1 (stereo not drawn)
IC50 [1]: 794 nM

C[C@H](CO)n1cnnc1-c1cccc(N2Cc3ccccc3C2=O)n1
IC50 [1]: 10 nM

COCCOc1ccc2c(c1)C(=O)N(c1cccc(-c3nncn3C(C)C)n1)C2
EC50 [2]: 15.8 nM
IC50 [1]: 7.94 nM

COCCOc1ccc2c(c1)C(=O)N(c1cccc(-c3nncn3[C@H](C)CO)n1)C2
EC50 [2]: 12.6 nM
IC50 [1]: 7.94 nM

Cc1cc(F)c(C(=O)Nc2ccccn2)cc1-n1cnc(C2CC2)c1
IC50 [1]: 6310 nM
